The text below walks through data of patent US12378231B2, “Small molecules as monoacylglycerol lipase (MAGL) inhibitors, compositions and use thereof” (APOGEE PHARMACEUTICALS, INC., priority 2023, dated 2025).

A word on the IC50: it is the midpoint of a concentration-inhibition curve.

In one experiment the target is human recombinant MAGL (Homo sapiens (Human), UniProt Q99685). The experiment can be described thus: In vitro inhibition of human recombinant MAGL activity (Cayman inhibitor screening kit, 4-nitrophenylacetate hydrolysis). In kind it is biochemical. The note with it: human recombinant MAGL; read-out: Inhibition on MAGL activity (IC50). The source says:
The inhibitory effect of the synthetic chemicals on activity of human recombinant MAGL was studied using commercial inhibitor screening kit (Cayman Chemical). […] The absorbance of the yellow product can be analyzed using the plate reader. […]

The target in the next experiment is human recombinant FAAH (Homo sapiens (Human), UniProt O00519). The experiment can be described thus: In vitro inhibition of human recombinant FAAH activity (Cayman FAAH inhibitor screening kit, AMC arachidonoyl amide hydrolysis). It counts as biochemical. The text has this:
In brief, FAAH hydrolyzes AMC arachidonoyl amide resulting in the release of the fluorescent product, while the inhibitor will inhibit the FAAH activity and thus reduce the fluorescent signal.

Sequence of human recombinant FAAH (O00519 whole entry): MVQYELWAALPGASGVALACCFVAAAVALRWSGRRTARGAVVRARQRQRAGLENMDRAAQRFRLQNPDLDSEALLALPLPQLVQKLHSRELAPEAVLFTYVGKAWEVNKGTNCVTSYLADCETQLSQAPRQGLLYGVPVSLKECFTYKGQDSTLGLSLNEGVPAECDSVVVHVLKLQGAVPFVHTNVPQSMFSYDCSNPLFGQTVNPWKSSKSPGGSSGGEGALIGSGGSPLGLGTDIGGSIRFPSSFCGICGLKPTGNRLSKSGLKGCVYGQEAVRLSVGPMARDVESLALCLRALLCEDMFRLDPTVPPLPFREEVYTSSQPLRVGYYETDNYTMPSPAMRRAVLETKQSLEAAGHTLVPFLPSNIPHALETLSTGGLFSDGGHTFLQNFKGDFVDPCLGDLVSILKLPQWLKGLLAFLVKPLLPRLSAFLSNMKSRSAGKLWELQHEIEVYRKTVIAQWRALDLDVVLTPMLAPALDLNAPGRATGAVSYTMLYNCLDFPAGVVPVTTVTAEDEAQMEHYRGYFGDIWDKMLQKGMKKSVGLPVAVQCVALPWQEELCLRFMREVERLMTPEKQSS
Sequence of human recombinant MAGL (Q99685 whole entry): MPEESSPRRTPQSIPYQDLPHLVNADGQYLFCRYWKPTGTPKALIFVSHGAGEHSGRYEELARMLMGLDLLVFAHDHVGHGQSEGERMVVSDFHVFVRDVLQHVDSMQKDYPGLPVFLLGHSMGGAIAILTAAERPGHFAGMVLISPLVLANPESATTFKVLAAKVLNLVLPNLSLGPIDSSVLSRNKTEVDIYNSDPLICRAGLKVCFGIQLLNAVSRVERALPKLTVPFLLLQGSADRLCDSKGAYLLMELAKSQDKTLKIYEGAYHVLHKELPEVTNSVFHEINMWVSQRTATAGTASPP

For “1-(4-(bis(2,3-dihydrobenzo[b][1,4]dioxin-6-yl)methyl)piperazine-1-carbonyl)-1H-benzo[d][1,2,3]triazole-6-carbonitrile and 1-(4-(bis(2,3-dihydrobenzo[b][1,4]dioxin-6-yl)methyl)piperazine-1-carbonyl)-1H-benzo[d][1,2,3]triazole-5-carbonitrile [Example 91]”, the IC50 at human recombinant MAGL was 1 to 10 nM; at human recombinant FAAH it was > 50000 nM.

Consider `N#Cc1ccc2c(c1)nnn2C(=O)N1CC2(CC(OC(c3ccc4c(c3)COCO4)c3ccc4c(c3)COCO4)C2)C1` [Example 60, 1-(6-(bis(4H-benzo[d][1,3]dioxin-6-yl)methoxy)-2-azaspiro[3.3]heptane-2-carbonyl)-1H-benzo[d][1,2,3]triazole-5-carbonitrile], for which the IC50 on human recombinant MAGL was 10 to 100 nM; on human recombinant FAAH it was < 10000 nM.

Consider `N#Cc1ccc2nnn(C(=O)N3CCN(C(c4ccc5c(c4)COCO5)c4ccc5c(c4)COCO5)CC3)c2c1` [Example 48, 1-(4-(bis(4H-benzo[d][1,3]dioxin-6-yl)methyl)piperazine-1-carbonyl)-1H-benzo[d][1,2,3]triazole-6-carbonitrile], for which the results for the IC50 on human recombinant MAGL and at human recombinant FAAH were 1 to 10 nM and > 20000 nM, respectively.

Take `Cn1ncc2cc(C(c3ccc4c(cnn4C)c3)N3CCN(C(=O)n4nnc5ccccc54)CC3)ccc21` [Example 112, (1H-benzo[d][1,2,3]triazol-1-yl)(4-(bis(1-methyl-1H-indazol-5-yl)methyl)piperazin-1-yl)methanone]: the IC50 was 10 to 100 nM at human recombinant MAGL and ~50000 nM at human recombinant FAAH.

On to `O=C(N1CCN(C(c2ccc3c(c2)COCO3)c2ccc3c(c2)COCO3)CC1)n1cc(-c2ccccc2)nn1` [Example 25, (4-(bis(4H-benzo[d][1,3]dioxin-6-yl)methyl)piperazin-1-yl)(4-phenyl-1H-1,2,3-triazol-1-yl)methanone], for which the IC50 was 10 to 100 nM on human recombinant MAGL and > 10000 nM on human recombinant FAAH.

With `O=C(N1CCCCC1)N1CCN(C(c2ccc3c(c2)COCO3)c2ccc3c(c2)COCO3)CC1` [Example 17, (4-(bis(4H-benzo[d][1,3]dioxin-6-yl)methyl)piperazin-1-yl)(piperidin-1-yl)methanone], the IC50 on human recombinant MAGL is > 100 nM; at human recombinant FAAH, > 50000 nM.

Take `O=C(OC1CCCCC1)N1CCN(C(c2ccc3c(c2)COCO3)c2ccc3c(c2)COCO3)CC1` [Example 16, cyclohexyl 4-(bis(4H-benzo[d][1,3]dioxin-6-yl)methyl)piperazine-1-carboxylate]: the IC50 at human recombinant MAGL was > 100 nM; on human recombinant FAAH, > 50000 nM.

Regarding `CC(C)=NOC(=O)N1CCN(C(c2ccc3c(c2)COCO3)c2ccc3c(c2)COCO3)CC1` [Example 30, propan-2-one O-(4-(bis(4H-benzo[d][1,3]dioxin-6-yl)methyl)piperazine-1-carbonyl) oxime], the IC50 on human recombinant MAGL was > 10000 nM; at human recombinant FAAH, > 50000 nM.
